Patent US10752591B2, “18-20 member bi-polycyclic compounds” (Haro Pharmaceutical Inc., priority 2014, dated 2020)

Legend:
[1] = target: T1, purified recombinant human HDAC-8 (Homo sapiens, UniProt Q9BY41); assay: HDAC-8 enzymatic inhibition (Boc-Lys(Tfa)-AMC / HDAC-Glo I/II); type: biochemical; settings: relative to compound 17
T1 construct: purchased Cayman Chem 10009465 (AMC assay (so in the source)); 19380 (HDAC-Glo assay)
T1 sequence (Q9BY41 1-377): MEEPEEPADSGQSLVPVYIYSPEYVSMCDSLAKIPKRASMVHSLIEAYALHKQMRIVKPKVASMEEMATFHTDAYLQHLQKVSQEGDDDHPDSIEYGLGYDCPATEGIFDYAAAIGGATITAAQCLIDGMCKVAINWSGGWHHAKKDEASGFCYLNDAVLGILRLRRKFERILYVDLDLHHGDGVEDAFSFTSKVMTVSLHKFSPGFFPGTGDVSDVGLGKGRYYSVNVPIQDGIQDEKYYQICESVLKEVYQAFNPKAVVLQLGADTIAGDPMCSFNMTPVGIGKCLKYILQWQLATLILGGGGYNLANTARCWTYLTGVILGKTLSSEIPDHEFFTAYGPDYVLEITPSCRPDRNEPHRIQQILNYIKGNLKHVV
Method: The effect of compounds on the enzymatic activity of purified recombinant human HDAC-1, -2, -3, -6, and -8 activity and of purified rat liver HDAC was examined by measuring the deacetylation of synthetic peptides in various preparations of HDACs. HDAC assays were performed using a two-step enzymatic reaction where enzyme activity is correlated to the release of […] (AMC). AMC fluorescence is measured in a fluorescent plate reading using λex380 nm and λen440 nm.
HDAC-8, HDAC-9, HDAC-10 and HDAC-11 were assayed using HDAC-Glo™ I/II Kit (Promega Corporation G6421) in a total volume of 110 μl following the manufacturer's instructions.
The reaction was allowed to proceed for 40 min at 37° C., after which developer solution (0.5% trypsin, 10 μM trichostatin A (TSA)) was added to obtain a final concentration of 0.1% trypsin, 2 μM TSA. After 30 minutes at room temperature, the amount of free fluorogenic AMC was measured as described above.

C2Cl2 cells = assay: Q-RT PCR of myofiber-degradation associated genes in long term C2Cl2 cultures; type: cell-based; settings: day 10, normalized for RPLP0
Method: Quantitative RT-PCR was performed on RNA prepared from cell treated as in Example 9. At day 10 of the experiment, cells were rinsed in HBSS (without calcium or magnesium) and RNA was prepared using FastLane Cell cDNA Kit (Qiagen). Quantitative PCR was performed using Eppendorf and SYBR amplification mix (Sigma-Aldrich) using the gene specific primer combination given in Table 3. Data were normalized for ribosomal housekeeping gene RPLP0

[2] = test system: Lys40 acetylated alpha tubulin; assay: intracellular acetylation of alpha-tubulin in BE-2C cells; type: cell-based
Method: The effect of certain compounds on intracellular acetylation of target proteins was tested in high risk neuroblastoma cells, BE-2C and IMR-32 cells.
BE-2C cells were grown to confluence in phenol-red-free RPMI media supplemented with 10% FBS and 2.5 mM Ala-Glu. […] Total and Lys 40 acetylated alpha tubulin were detected using specific antibodies.
Beta actin, total and Lys382 acetylated p53, and Lys40 acetylated alpha, and total tubulin were detected using antibodies (Cell Signaling #8557, #2524 #2525, #12152 and #2144 respectively) using manufacturer recommended conditions.

CC1(C)CCC(C)(C)c2cc(-c3cc4cc(C(=O)NO)ccc4[nH]3)ccc21 [Compound 13]
times/fold more potent than compound 17 in HDAC-8 inhibition [1]: at least 13 | expression of Atrogin (C2Cl2 cells): downregulates | expression of myogenin (C2Cl2 cells): downregulates | alpha tubulin acetylation by LC-MS analysis [2]: lack of increased alpha tubulin acetylation | Lysin (K) 40 alpha-Tubulin acetylation ([2]; 5 μM, 16 hours): no significant acetylation
